Laboratory results reported in PMC4553520, “Laboratory and Simulated Field Bioassays to Evaluate Larvicidal Activity of Pinus densiflora Hydrodistillate, Its Constituents and Structurally Related Compounds against Aedes albopictus, Aedes aegypti and Culex pipiens pallens in Relation to Their Inhibitory Effects on Acetylcholinesterase Activity” (Insects, 2013).

Assays:
[1] = target: acetylcholinesterase (AChE) extracted from the heads of larval Cx. p. pallens (Culex pipiens pallens, UniProt Q86GC8); test: AChE inhibition assay, Cx. p. pallens; type: biochemical; conditions: in vitro
Chain of acetylcholinesterase (AChE) extracted from the heads of larval Cx. p. pallens (Q86GC8 37-702): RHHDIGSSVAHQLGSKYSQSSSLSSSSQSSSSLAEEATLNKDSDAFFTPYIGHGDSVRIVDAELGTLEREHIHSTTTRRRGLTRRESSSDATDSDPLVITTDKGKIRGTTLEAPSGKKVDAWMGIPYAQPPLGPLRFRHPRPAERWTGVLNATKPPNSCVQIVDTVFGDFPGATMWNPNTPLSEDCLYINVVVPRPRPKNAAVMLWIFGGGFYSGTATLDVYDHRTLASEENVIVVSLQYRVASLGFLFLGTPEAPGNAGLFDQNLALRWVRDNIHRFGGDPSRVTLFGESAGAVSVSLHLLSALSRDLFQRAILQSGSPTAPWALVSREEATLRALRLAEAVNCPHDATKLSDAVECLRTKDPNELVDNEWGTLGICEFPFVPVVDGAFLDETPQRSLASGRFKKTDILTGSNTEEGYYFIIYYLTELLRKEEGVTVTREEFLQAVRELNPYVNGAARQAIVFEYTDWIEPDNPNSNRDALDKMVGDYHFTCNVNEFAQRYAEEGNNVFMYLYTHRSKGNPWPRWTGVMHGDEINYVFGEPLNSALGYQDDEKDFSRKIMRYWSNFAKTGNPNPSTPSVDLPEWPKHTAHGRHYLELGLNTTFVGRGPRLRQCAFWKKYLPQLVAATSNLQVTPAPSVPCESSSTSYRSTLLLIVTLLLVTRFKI
Protocol: (§1) For each species, larvae frozen at −20 °C were decapitated and 100 heads were homogenized in 5 mL of ice-cold 0.1 M sodium phosphate buffer (pH 8.0), using a Teflon glass tissue homogenizer. The homogenate was centrifuged at 10,000 × g at 4 °C for 20 min. The supernatant was filtered by a 0.22 µm-Millex-GV filter (Millipore, Cork, Ireland) and was used as the AChE preparation. Protein concentrations were determined by the Bradford dye method using BSA as the standard. A microplate AChE assay was carried out following the method of Moores et al. adapted from Ellman et al.. The reaction mixture consisted of 80 µL of the crude enzyme preparation, 10 µL of 7.5 mM DTNB in phosphate buffer (pH 7.0) and 100 µL of the selected test compounds of various concentrations in 2.5% acetone. The reaction mixture was incubated at 30 °C for 5 min and 10 µL of 6.25 mM ATChI was then added to the mixture. The absorbance was recorded at 414 nm, using a Molecular Devices VersaMax microplate reader (Sunnyvale, CA, USA). All AChE inhibition assays were repeated three times in triplicates.
(§2) Concentration-mortality data were subjected to probit analysis using SAS [20]. […] Furthermore, for the compounds tested in AChE inhibition assays, a correlation analysis between their LC50 values and IC50 values was conducted using SAS [20].

[2] = target: acetylcholinesterase (AChE) extracted from the heads of larval Ae. aegypti (Aedes aegypti, UniProt Q6A2E2); test: AChE inhibition assay, Ae. aegypti; type: biochemical; conditions: in vitro
Chain of acetylcholinesterase (AChE) extracted from the heads of larval Ae. aegypti (Q6A2E2 37-679): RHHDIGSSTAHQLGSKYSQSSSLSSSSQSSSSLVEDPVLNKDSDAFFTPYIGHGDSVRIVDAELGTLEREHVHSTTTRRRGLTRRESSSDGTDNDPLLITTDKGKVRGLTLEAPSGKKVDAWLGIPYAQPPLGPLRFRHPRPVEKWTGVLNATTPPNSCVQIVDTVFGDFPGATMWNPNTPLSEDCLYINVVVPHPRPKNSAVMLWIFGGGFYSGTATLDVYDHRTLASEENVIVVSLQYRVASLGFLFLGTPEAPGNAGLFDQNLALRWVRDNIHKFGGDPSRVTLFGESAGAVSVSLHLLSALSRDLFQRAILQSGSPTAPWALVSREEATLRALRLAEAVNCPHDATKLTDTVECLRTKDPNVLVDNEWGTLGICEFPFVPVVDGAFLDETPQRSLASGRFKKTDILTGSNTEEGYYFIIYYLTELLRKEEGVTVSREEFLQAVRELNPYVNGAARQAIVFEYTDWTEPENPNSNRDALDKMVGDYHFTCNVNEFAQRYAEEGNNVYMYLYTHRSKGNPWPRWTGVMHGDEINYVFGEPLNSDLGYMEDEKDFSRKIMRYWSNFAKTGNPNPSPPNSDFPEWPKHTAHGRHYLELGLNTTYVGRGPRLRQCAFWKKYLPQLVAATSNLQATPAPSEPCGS
Protocol: as §1, §2

[3] = tested on: early third-instar larvae of Ae. aegypti; test: Direct-contact mortality bioassay, Ae. aegypti larvae; conditions: early third-instar larvae, 24 h exposure, direct contact
Protocol: (§3) Direct-contact mortality bioassays were employed to evaluate the toxicity of all compounds, using early third-instar larvae of each mosquito species. Each compound was dissolved in methanol, and then further diluted in distilled water containing Triton X-100 (20 µL/L). Groups of 20 mosquito larvae of each species were put into separate paper cups (270 mL), each containing different compound solutions (250 mL). The toxicity of each compound was determined by repeating this experimental procedure with different concentrations, ranging from 5 to 200 mg/L. Temephos and fenthion served as standard references and were similarly formulated as well. Controls contained only methanol-Triton X-100 carrier solution in distilled water.
(§4) Both treated and control larvae were kept under the same conditions as those used for colony maintenance. […] Due to certain constraints arising from the number of available larvae, all necessary bioassays could not be conducted simultaneously and thus, treatments were conducted over a period of time, with a separate control treatment included each time. Freshly prepared compound solutions were used for each round of bioassays. All bioassays were repeated three times.
as §2

[4] = target: acetylcholinesterase (AChE) extracted from the heads of larval Ae. albopictus (Aedes albopictus, UniProt Q2PGF2); test: AChE inhibition assay, Ae. albopictus; type: biochemical; conditions: in vitro
Chain of acetylcholinesterase (AChE) extracted from the heads of larval Ae. albopictus (Q2PGF2 37-680): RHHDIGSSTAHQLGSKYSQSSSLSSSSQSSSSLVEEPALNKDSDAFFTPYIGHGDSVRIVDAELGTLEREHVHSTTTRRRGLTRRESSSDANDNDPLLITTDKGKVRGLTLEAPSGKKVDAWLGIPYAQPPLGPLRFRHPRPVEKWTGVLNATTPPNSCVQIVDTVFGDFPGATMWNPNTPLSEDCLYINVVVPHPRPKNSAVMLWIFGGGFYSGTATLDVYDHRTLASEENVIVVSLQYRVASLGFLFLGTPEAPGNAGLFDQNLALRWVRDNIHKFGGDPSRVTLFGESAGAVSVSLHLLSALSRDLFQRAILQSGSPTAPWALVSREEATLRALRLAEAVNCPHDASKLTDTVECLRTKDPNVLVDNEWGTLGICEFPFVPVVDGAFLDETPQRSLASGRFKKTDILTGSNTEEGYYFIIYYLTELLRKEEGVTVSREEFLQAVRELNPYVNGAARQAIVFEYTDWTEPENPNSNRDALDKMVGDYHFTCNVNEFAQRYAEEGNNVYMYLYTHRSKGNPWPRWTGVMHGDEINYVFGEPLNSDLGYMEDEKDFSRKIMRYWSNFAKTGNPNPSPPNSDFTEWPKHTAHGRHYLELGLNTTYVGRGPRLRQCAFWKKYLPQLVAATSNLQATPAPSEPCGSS
Protocol: as §1, §2

[5] = tested on: early third-instar larvae of Ae. albopictus; test: Direct-contact mortality bioassay, Ae. albopictus larvae; conditions: early third-instar larvae, 24 h exposure, direct contact
Protocol: as §3, §4, §2

[6] = tested on: early third-instar larvae of Cx. p. pallens; test: Direct-contact mortality bioassay, laboratory-reared Cx. p. pallens larvae; conditions: laboratory-reared early third-instar larvae, 24 h exposure, direct contact
Protocol: as §3, §4, §2

Row | Compound | IC50 [1] [mM] | IC50 [2] [mM] | LC50 (Ae. aegypti), mg/L (95% CL) [3] [mg/L] | IC50 [4] [mM] | LC50 (Ae. albopictus), mg/L (95% CL) [5] | LC50 (Cx p. pallens), mg/L (95% CL) [6]
1 | C/C1=C\CC/C(C)=C/CC(C)(C)/C=C/C1 [α-humulene] | 62.3 | 58.1 | >150 | 47.6 | >150 mg/L | >150 mg/L
2 | (−)-myrtenal | 31.6 | 34 | >150 | 23.7 | 137.86 (119.15–173.91) mg/L | 139.61 (122.92–169.77) mg/L
